Test results: patent US20260042764A1, “COMPOSITIONS AND METHODS FOR INHIBITION OF KRAS” (TheRas, Inc., priority 2022, published 2026)

Assays:
[1] = target: T1, Avi-KRAS G12V (1-169) GppNHp/RAF1 RBD-3xFLAG (52-151) (Homo sapiens, UniProt P01116, G12V); test: Raf1-KRAS G12V-GppNHP disruption HTRF assay (Biological Example 1); assay type: binding
T1 construct: Avi-KRAS G12V (1-169)
Method in brief: (§1)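 Protein mix, 1 h RT, 700 rpm; reagent mix, 1 h RT, 700 rpm; HTRF read. Buffer Tris pH 7.5/NaCl/MgCl2/BSA/Tween, 10% DMSO. Output % activity, DMSO = 100%.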

[2] = target: T2, Avi-KRAS G12R (1-169) GppNHp/RAF1 RBD-3xFLAG (52-151) (Homo sapiens, UniProt P01116, G12R); test: Raf1-KRAS G12R-GppNHP disruption HTRF assay (Biological Example 1); assay type: binding
T2 construct: Avi-KRAS G12R (1-169)
T2 sequence (P01116 1-169 isoform P01116-2 G12R): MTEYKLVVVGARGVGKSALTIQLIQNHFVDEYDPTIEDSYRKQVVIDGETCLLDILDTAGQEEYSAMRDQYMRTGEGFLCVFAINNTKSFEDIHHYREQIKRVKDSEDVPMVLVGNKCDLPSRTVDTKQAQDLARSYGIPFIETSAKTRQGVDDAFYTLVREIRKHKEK
Method in brief: as §1

GP2d cells (KRAS G12D) = test: Cell-based pERK HTRF assay in GP2d cell (Biological Example 2); settings: GP2d (KRAS G12D) cells, pERK HTRF
Method in brief: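 Treatment with test compounds lasted one hour in DMEM containing 10% FBS, with DMSO held at 0.25%. Dilution series: 9 points, half-log spacing, highest 1 μM or 100 nM. Lysates were incubated 4–24 h at room temperature with antibody mix, then HTRF was read at 320 nm excitation.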

[3] = target: T3, Avi-KRAS WT (1-169) GppNHp/RAF1 RBD-3xFLAG (52-151) (Homo sapiens, UniProt P01116); test: Raf1-KRAS WT-GppNHP disruption HTRF assay (Biological Example 1); assay type: binding
T3 construct: Avi-KRAS WT (1-169)
T3 sequence (P01116 1-169 isoform P01116-2): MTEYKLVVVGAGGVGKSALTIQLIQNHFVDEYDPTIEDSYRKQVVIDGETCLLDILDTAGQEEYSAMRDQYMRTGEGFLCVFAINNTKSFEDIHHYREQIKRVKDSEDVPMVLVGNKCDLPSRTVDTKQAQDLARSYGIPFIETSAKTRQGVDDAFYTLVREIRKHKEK
Method in brief: as §1

[4] = target: T4, Avi-KRAS G12D (1-169) GppNHp/RAF1 RBD-3xFLAG (52-151) (Homo sapiens, UniProt P01116, G12D); test: Raf1-KRAS G12D-GppNHP disruption HTRF assay (Biological Example 1); assay type: binding
T4 construct: Avi-KRAS G12D (1-169)
T4 sequence (P01116 1-169 isoform P01116-2 G12D): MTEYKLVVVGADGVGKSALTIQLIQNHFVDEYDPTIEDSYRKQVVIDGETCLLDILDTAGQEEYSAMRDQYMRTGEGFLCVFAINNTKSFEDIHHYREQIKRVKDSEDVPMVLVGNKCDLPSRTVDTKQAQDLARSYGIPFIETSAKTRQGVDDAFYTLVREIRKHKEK
Method in brief: as §1

SW620 cells (KRAS G12V) = test: Cell-based pERK HTRF assay in SW620 cell (Biological Example 4); settings: pERK HTRF
Method in brief: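 SW620 seeded in RPMI/10% FBS, next day dosed 4 h (top 1 μM, half-log, 9 pts, 0.25% DMSO). Lysed, pERK by d2/Eu cryptate HTRF, 4–24 h RT, 615 nm read.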

[5] = KRAS G12V, GppNHp-loaded, Table 11
[6] = KRAS G12R, GppNHp-loaded, Table 11
[7] = KRAS WT, GppNHp-loaded, Table 11
[8] = KRAS G12D, GppNHp-loaded, Table 11
[9] = Homo sapiens, SW-620, SW620 (KRAS G12V) cells
[10] = KRAS G12V, GppNHp-loaded, class symbols
[11] = KRAS G12R, GppNHp-loaded, class symbols
[12] = KRAS WT, GppNHp-loaded, class symbols
[13] = KRAS G12D, GppNHp-loaded, class symbols
[14] = Homo sapiens, SW-620, SW620 (KRAS G12V) cells, class symbols

Measured: IC50

T1 sequence (P01116 1-169 isoform P01116-2 G12V): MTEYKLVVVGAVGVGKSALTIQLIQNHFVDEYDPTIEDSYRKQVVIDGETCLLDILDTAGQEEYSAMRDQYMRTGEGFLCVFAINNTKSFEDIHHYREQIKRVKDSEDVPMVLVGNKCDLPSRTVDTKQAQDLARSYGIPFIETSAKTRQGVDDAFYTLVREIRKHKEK

CN(c1nc(OC[C@@]23CCCN2C[C@H](F)C3)nc2c(F)c(-c3ccc(F)c4sc(N)c(C#N)c34)c(C(F)(F)F)cc12)[C@@H]1CCCOC1 [Compound 274]
100 to 1000 nM: [1]; [5] | [2]; [6] | [3]; [7] | [4]; [8]
< 100 nM: GP2d cells (KRAS G12D); GP2d | SW620 cells (KRAS G12V); [9]

N#Cc1c(N)sc2c(F)ccc(-c3c(C(F)(F)F)cc4c(N5CCCS(=O)(=O)CC5)nc(OC[C@@]56CCCN5C[C@H](F)C6)nc4c3F)c12 [Compound 263]
< 100 nM: [2]; [6] | GP2d cells (KRAS G12D); GP2d | [3]; [7] | [4]; [8] | SW620 cells (KRAS G12V); [9]
100 to 1000 nM: [1]; [5]

N#Cc1c(N)sc2c(F)ccc(-c3c(C(F)(F)F)cc4c(N5CC6CC(C5)O6)nc(OC[C@]56C[C@@H](F)CN5CC5(CC5)C6)nc4c3F)c12 [Compound 594]
1000 to 10000 nM: [1]; [10] | [2]; [11] | [3]; [12] | [4]; [13]
< 100 nM: GP2d cells (KRAS G12D); GP2d, class symbols | SW620 cells (KRAS G12V); [14]

CCN(c1nc(OC[C@@]23CCCN2C[C@H](F)C3)nc2c(F)c(-c3ccc(F)c4sc(N)c(C#N)c34)c(C(F)(F)F)cc12)[C@H]1CC(=O)N(C2CC2)C1 [Compound 496]
1000 to 10000 nM: [1]; KRAS G12V-GppNHp/RAF1 RBD HTRF | [2]; KRAS G12R-GppNHp/RAF1 RBD HTRF | [3]; KRAS WT-GppNHp/RAF1 RBD HTRF
100 to 1000 nM: [4]; KRAS G12D-GppNHp/RAF1 RBD HTRF | SW620 cells (KRAS G12V); [9]
< 100 nM: GP2d cells (KRAS G12D); GP2d

C[C@@H]1[C@H](N(C)c2nc(OC[C@@]34CCCN3C[C@H](F)C4)nc3c(F)c(-c4ccc(F)c5sc(N)c(C#N)c45)c(Cl)cc23)CCN1C(=O)CF [Compound 460]
< 100 nM: GP2d cells (KRAS G12D) | SW620 cells (KRAS G12V); [9]
100 to 1000 nM: [1]; KRAS G12V-GppNHp/RAF1 RBD HTRF | [2]; KRAS G12R-GppNHp/RAF1 RBD HTRF | [3]; KRAS WT-GppNHp/RAF1 RBD HTRF | [4]; KRAS G12D-GppNHp/RAF1 RBD HTRF

CN(C)C(=O)c1nnn2c1CN(c1nc(OC[C@@]34CCCN3C[C@H](F)C4)nc3c(F)c(-c4ccc(F)c5sc(N)c(C#N)c45)c(C(F)(F)F)cc13)CC2 [Compound 466]
100 to 1000 nM: [1]; KRAS G12V-GppNHp/RAF1 RBD HTRF | [2]; KRAS G12R-GppNHp/RAF1 RBD HTRF | [3]; KRAS WT-GppNHp/RAF1 RBD HTRF | [4]; KRAS G12D-GppNHp/RAF1 RBD HTRF
< 100 nM: GP2d cells (KRAS G12D); GP2d | SW620 cells (KRAS G12V); [9]

CC(=O)N1CC[C@@H](N(C)c2nc(OC[C@@]34CCCN3C[C@H](F)C4)nc3c(F)c(-c4ccc(F)c5sc(N)c(C#N)c45)c(C(F)(F)F)cc23)[C@@H]1C [Compound 190, 4-(4-(((2S,3R)-1-acetyl-2-methylpyrrolidin-3-yl)(methyl)amino)-8-fluoro-2-(((2R,7aS)-2-fluorotetrahydro-1H-pyrrolizin-7a(5H)-yl)methoxy)-6-(trifluoromethyl)quinazolin-7-yl)-2-amino-7-fluorobenzo[b]thiophene-3-carbonitrile]
< 100 nM: GP2d cells (KRAS G12D); GP2d
100 to 1000 nM: [1]; [5] | [2]; [6] | [3]; [7] | [4]; [8] | SW620 cells (KRAS G12V); [9]

CCN(c1nc(OC[C@@]23CCCN2C[C@H](F)C3)nc2c(F)c(-c3ccc(F)c4sc(N)c(C#N)c34)c(C(F)(F)F)cc12)[C@H]1CCN(C(=O)N(C)C)C1 [Compound 395]
< 100 nM: [1]; KRAS G12V-GppNHp/RAF1 RBD HTRF | [2]; KRAS G12R-GppNHp/RAF1 RBD HTRF | GP2d cells (KRAS G12D); GP2d | [3]; KRAS WT-GppNHp/RAF1 RBD HTRF | [4]; KRAS G12D-GppNHp/RAF1 RBD HTRF | SW620 cells (KRAS G12V); [9]

N#Cc1c(N)sc2c(F)ccc(-c3c(C(F)(F)F)cc4c(N(C5CC5)[C@H]5CCN(C(=O)N6CC(F)C6)C5)nc(OC[C@@]56CCCN5C[C@H](F)C6)nc4c3F)c12 (atropisomer, axis not shown) [Compound 813]
< 100 nM: GP2d cells (KRAS G12D); GP2d, class symbols | [4]; [13] | SW620 cells (KRAS G12V); [14]
100 to 1000 nM: [1]; [10] | [2]; [11] | [3]; [12]

CCN(c1nc(OC[C@@]23CCCN2C[C@H](F)C3)nc2c(F)c(-c3ccc(F)c4sc(N)c(C#N)c34)c(C(F)(F)F)cc12)[C@H]1CCN(C(=O)c2ccncn2)C1 (atropisomer, axis not shown) [Compound 730]
< 100 nM: [1]; [10] | [2]; [11] | GP2d cells (KRAS G12D); GP2d, class symbols | [3]; [12] | [4]; [13] | SW620 cells (KRAS G12V); [14]

N#Cc1c(N)sc2c(F)ccc(-c3c(C(F)(F)F)cc4c(N5CCn6nccc6C5)nc(OC[C@@]56CCCN5C[C@H](F)C6)nc4c3F)c12 [Compound 233]
1000 to 10000 nM: [1]; [5]
< 100 nM: GP2d cells (KRAS G12D) | SW620 cells (KRAS G12V); SW620 (KRAS G12V) cells
100 to 1000 nM: [2]; [6] | [3]; [7] | [4]; [8]
